Measured values: patent publication US20250375544A1, “DUAL MODE RADIOTRACER AND -THERAPEUTICS” (TECHNISCHE UNIVERSITÄT MÜNCHEN, priority 2021, published 2025)

Experiments:
[1] = tested on: LNCaP tumor xenograft-bearing CB17-SCID mice; test: Biodistribution in LNCaP tumor xenograft-bearing CB17-SCID mice; settings: 24 h p.i.
[2] = target: PSMA (Homo sapiens, UniProt Q04609); test: Affinity determinations (IC50), competitive binding assay with ([^125I]I-BA)KuE on LNCaP cells; settings: ([^125I]I-BA)KuE 0.2 nM, HBSS (1% BSA), 4° C., 1 h, cold ^natGa/^natLu complex
[3] = ^177Lu-labeled compound, n = 6

PSMA, sequence (Q04609 whole entry): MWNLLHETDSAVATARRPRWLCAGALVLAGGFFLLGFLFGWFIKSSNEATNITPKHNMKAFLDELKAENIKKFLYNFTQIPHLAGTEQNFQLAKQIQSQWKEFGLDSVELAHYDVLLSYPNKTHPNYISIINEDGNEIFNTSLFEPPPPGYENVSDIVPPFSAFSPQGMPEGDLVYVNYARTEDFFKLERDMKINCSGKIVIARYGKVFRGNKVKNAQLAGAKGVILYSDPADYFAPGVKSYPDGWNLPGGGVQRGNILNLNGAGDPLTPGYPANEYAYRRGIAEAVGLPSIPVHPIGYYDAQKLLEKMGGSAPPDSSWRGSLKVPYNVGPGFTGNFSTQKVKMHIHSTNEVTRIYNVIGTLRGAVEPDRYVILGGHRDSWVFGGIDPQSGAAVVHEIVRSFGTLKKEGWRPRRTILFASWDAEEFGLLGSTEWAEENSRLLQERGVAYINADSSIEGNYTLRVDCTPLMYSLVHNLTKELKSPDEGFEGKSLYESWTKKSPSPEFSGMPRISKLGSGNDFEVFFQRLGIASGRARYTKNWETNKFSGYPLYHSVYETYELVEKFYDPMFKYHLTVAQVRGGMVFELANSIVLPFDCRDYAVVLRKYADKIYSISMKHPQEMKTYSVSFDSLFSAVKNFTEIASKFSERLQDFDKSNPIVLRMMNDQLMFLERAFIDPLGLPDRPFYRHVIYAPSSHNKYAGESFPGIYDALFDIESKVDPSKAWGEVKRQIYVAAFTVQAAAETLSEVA

Compound | Biodistribution Adrenals [1] [% ID/g] | Biodistribution Blood [1] [% ID/g] | Biodistribution Bone [1] [% ID/g] | Biodistribution Heart [1] [% ID/g] | Biodistribution Intestine [1] [% ID/g] | Biodistribution Kidneys [1] [% ID/g] | Biodistribution Liver [1] [% ID/g] | Biodistribution Lung [1] [% ID/g] | Biodistribution Muscle [1] [% ID/g] | Biodistribution Pancreas [1] [% ID/g] | Biodistribution Parotid gland [1] [% ID/g] | Biodistribution Spleen [1] [% ID/g] | Biodistribution Stomach [1] [% ID/g] | Biodistribution Submandibular gland [1] [% ID/g] | Biodistribution Tumor [1] [% ID/g] | IC50 [2] [nM] | log D [3]
CCCCCC[C@H](NC(=O)CC[C@H](NC(=O)N[C@@H](CCC(=O)N[C@H](CCCNC(=O)CCC(=O)NCCCC[C@@H](NC(=O)[C@@H](CNC(=O)c1ccc([Si](F)(C(C)(C)C)C(C)(C)C)cc1)NC(=O)CN1CCN(CC(=O)[O-])CCN(CC(=O)[O-])CCN(CC(=O)[O-])CC1)C(=O)O)C(=O)O)C(=O)O)C(=O)O)C(=O)O.[177Lu+3] [[^177Lu]Lu-6, [^177Lu]Lu-Proinhibitor II] | 0.04 ± 0.00 | 0.00 ± 0.00 | 0.02 ± 0.01 | 0.03 ± 0.01 | 0.18 ± 0.06 | 2.36 ± 0.39 | 0.14 ± 0.02 | 0.10 ± 0.08 | 0.02 ± 0.00 | 0.03 ± 0.01 | 0.09 ± 0.03 | 0.11 ± 0.03 | 0.05 ± 0.01 | 0.07 ± 0.01 | 0.33±0.11 | – | –
CCCCC[C@H](NC(=O)N[C@@H](CCC(=O)N[C@H](CCCNC(=O)CCC(=O)NCCCC[C@@H](NC(=O)[C@@H](CNC(=O)c1ccc([Si](F)(C(C)(C)C)C(C)(C)C)cc1)NC(=O)CN1CCN(CC(=O)[O-])CCN(CC(=O)[O-])CCN(CC(=O)[O-])CC1)C(=O)O)C(=O)O)C(=O)O)C(=O)O.[Lu+3] [^natLu-8, ^natLu-2-Aminoheptanoic Acid Derivative 8] | – | – | – | – | – | – | – | – | – | – | – | – | – | – | – | > 2000 | –
CC(C)(C)[Si](F)(c1ccc(C(=O)NCC(NC(=O)CN2CCN(CC(=O)[O-])CCN(CC(=O)[O-])CCN(CC(=O)[O-])CC2)C(=O)NC(CCCCNC(=O)CCC(=O)NCCCC(NC(=O)CCC(NC(=O)NC(Cc2ccco2)C(=O)O)C(=O)O)C(=O)O)C(=O)O)cc1)C(C)(C)C.[Lu+3] (centres unmarked) [^natLu-9, ^natLu-Furyl Derivative 9] | – | – | – | – | – | – | – | – | – | – | – | – | – | – | – | > 440 | –
CSCC[C@H](NC(=O)CC[C@H](NC(=O)N[C@@H](CCC(=O)N[C@H](CCCNC(=O)CCC(=O)NCCCC[C@@H](NC(=O)[C@@H](CNC(=O)c1ccc([Si](F)(C(C)(C)C)C(C)(C)C)cc1)NC(=O)CN1CCN(CC(=O)O)CCN(CC(=O)O)CCN(CC(=O)O)CC1)C(=O)O)C(=O)O)C(=O)O)C(=O)O)C(=O)O [Compound 5, Proinhibitor I] | – | – | – | – | – | – | – | – | – | – | – | – | – | – | – | – | −2.89±0.18
CC(C)(C)[Si](F)(c1ccc(C(=O)NCC(NC(=O)CN2CCN(CC(=O)[O-])CCN(CC(=O)[O-])CCN(CC(=O)[O-])CC2)C(=O)NC(CCCCNC(=O)CCC(=O)NCCCC(NC(=O)CCC(NC(=O)NC(CCC(=O)O)C(=O)O)C(=O)O)C(=O)O)C(=O)O)cc1)C(C)(C)C.[Lu+3] (centres unmarked) [^natLu-1, ^natLu-PSMA-10, reference compound] | – | – | – | – | – | – | – | – | – | – | – | – | – | – | – | 7.2 ± 3.7 | –
CC(C)(C)[Si](F)(c1ccc(C(=O)NCC(NC(=O)CN2CCN(CC(=O)[O-])CCN(CC(=O)[O-])CCN(CC(=O)[O-])CC2)C(=O)NC(CCCCNC(=O)CCC(=O)NCCCC(NC(=O)CCC(NC(=O)NC(CCc2nnn[nH]2)C(=O)O)C(=O)O)C(=O)O)C(=O)O)cc1)C(C)(C)C.[Lu+3] (centres unmarked) [^natLu-11, ^natLu-Tetrazole Derivative 11] | – | – | – | – | – | – | – | – | – | – | – | – | – | – | – | 16.4 ± 3.8 | –
CCCCCC[C@H](NC(=O)[C@H](CCC(=O)O)NC(=O)N[C@@H](CCC(=O)N[C@H](CCCNC(=O)CCC(=O)NCCCC[C@@H](NC(=O)[C@@H](CNC(=O)c1ccc([Si](F)(C(C)(C)C)C(C)(C)C)cc1)NC(=O)CN1CCN(CC(=O)[O-])CCN(CC(=O)[O-])CCN(CC(=O)[O-])CC1)C(=O)O)C(=O)O)C(=O)O)C(=O)O.[177Lu+3] [[^177Lu]Lu-7, [^177Lu]Lu-Proinhibitor III] | 0.03 ± 0.01 | 0.01 ± 0.00 | 0.04 ± 0.01 | 0.03 ± 0.01 | 0.10 ± 0.05 | 2.04 ± 0.75 | 0.17 ± 0.05 | 0.04 ± 0.01 | 0.01 ± 0.00 | 0.02 ± 0.00 | 0.06 ± 0.01 | 0.08 ± 0.02 | 0.04 ± 0.01 | 0.05 ± 0.02 | 0.14 ± 0.05 | – | –
CSCC[C@H](NC(=O)CC[C@H](NC(=O)N[C@@H](CCC(=O)N[C@H](CCCNC(=O)CCC(=O)NCCCC[C@@H](NC(=O)[C@@H](CNC(=O)c1ccc([Si](F)(C(C)(C)C)C(C)(C)C)cc1)NC(=O)CN1CCN(CC(=O)[O-])CCN(CC(=O)[O-])CCN(CC(=O)[O-])CC1)C(=O)O)C(=O)O)C(=O)O)C(=O)O)C(=O)O.[177Lu+3] [[^177Lu]Lu-5, [^177Lu]Lu-Proinhibitor I] | 0.00 ± 0.00 | 0.00 ± 0.00 | 0.00 ± 0.00 | 0.01 ± 0.00 | 0.55 ± 0.04 | 0.48 ± 0.02 | 0.05 ± 0.00 | 0.33 ± 0.30 | 0.00 ± 0.00 | 0.01 ± 0.00 | 0.02 ± 0.00 | 0.05 ± 0.01 | 0.14 ± 0.07 | 0.02 ± 0.01 | 0.09±0.02 | – | –
